Consider 13 compounds from patent US20180352841A1, “COMPOSITION HAVING RICH-TASTE IMPARTING FUNCTION” (AJINOMOTO CO., INC., priority 2016, published 2018).

Test [1] is described as follows: Organoleptic evaluation of coffee-like thickness in milk coffee with 0.2 ppm γ-Glu-Val-Gly (Example 1). Conditions: for Coffee-like thickness (initial taste) / Coffee-like thickness (middle to aftertaste): milk coffee + 0.2 ppm γ-Glu-Val-Gly (control sample = score 0); for Coffee-like thickness (initial taste): 0 to 1 second after drinking, score 0 to 3 (0 no effect, 1 weakly effective, 2 effective, 3 strongly effective), 2 to 4 panelists, ingredient ppm: succinic acid 5, proline 12.5, KH2PO4 3, K2HPO4 12.5, L-tartaric acid 6, adipic acid 25, citric acid 3.5, CaCl2 50, MgCl2 12.5, DL-malic acid 3, trisodium citrate 0.8, sodium fumarate 1.5; for Coffee-like thickness (middle to aftertaste): 1 to 5 seconds after drinking, score 0 to 3, ingredient ppm as in Table 1 c0 (succinic acid 5, proline 12.5, KH2PO4 3, K2HPO4 12.5, L-tartaric acid 6, adipic acid 25, citric acid 3.5, CaCl2 50, MgCl2 12.5, DL-malic acid 3, trisodium citrate 0.8, sodium fumarate 1.5); for Thickness-enhancing effect for the initial taste: milk coffee + 0.2 ppm γ-Glu-Val-Gly, summary of Table 1. The protocol:
As an evaluation system, milk coffee (“Birdy Robusta”, Ajinomoto Co., (Thailand) Ltd.) was used. To this milk coffee, 0.2 ppm of γ-Glu-Val-Gly was added, to prepare a control sample.
Organoleptic evaluation was performed by 2 to 4 persons of special panelists for strength of “coffee-like thickness” of each sample, to determine thickness-enhancing effects (thickness-boosting effect) of the ingredients to be evaluated.

Test [2] is described as follows: Organoleptic evaluation of coffee-like thickness in milk coffee with 0.8 ppm γ-Glu-Abu (Example 3). Conditions: for thickness-enhancing effect for initial taste: milk coffee + 0.8 ppm γ-Glu-Abu, summary of Table 3; for Coffee-like thickness (initial taste) / Coffee-like thickness (middle to aftertaste): milk coffee + γ-Glu-Abu 0.8 ppm (control = score 0), score 0 to 3, L-tartaric acid 6 ppm, adipic acid 25 ppm, citric acid 3.5 ppm; for Coffee-like thickness (initial taste): 0 to 1 second; for Coffee-like thickness (middle to aftertaste): 1 to 5 seconds. The protocol:
(§1) Organoleptic evaluation was performed by 2 to 4 persons of special panelists for strength of “coffee-like thickness” of each sample, to determine thickness-enhancing effects (thickness-boosting effect) of the ingredients to be evaluated. The organoleptic evaluation was performed by a four grade scoring method for initial taste, middle taste, and aftertaste (sensed in the periods of 0 to 1 second, 1 to 3 seconds, and 3 to 5 seconds after drinking, respectively, which periods are defined for a liquid) with scores of 0 to 3, wherein score 0 means no effect (i.e. strength of the thickness is the same as that of the control sample), score 1 means weakly effective, score 2 means effective, and score 3 means strongly effective.
(§2) As an evaluation system, milk coffee (“Birdy Robusta”, Ajinomoto Co., (Thailand) Ltd.) was used.
(§3) Organoleptic evaluation was performed for strength of “coffee-like thickness” of each sample by 2 persons of special panelists with the same criteria as those of Example 1 wherein score 0 was defined to mean the strength of thickness of each control sample, to determine thickness-enhancing effects (thickness-boosting effects) of the ingredients to be evaluated.

Test [3] is described as follows: Organoleptic evaluation of thickness in cookie with 5 ppm γ-Glu-Val-Gly (Example 4). Conditions: for Thickness-enhancing effect for the initial taste: cookie with 5 ppm γ-Glu-Val-Gly, text summary of Table 4; for Thickness (initial taste) / Thickness (middle to aftertaste): cookie, γ-Glu-Val-Gly 5 ppm in dough (control = score 0), score 0 to 3, L-tartaric acid 5 ppm, sodium L-tartrate 2 ppm, adipic acid 20 ppm, citric acid 1 ppm; for Thickness (initial taste): 0 to 4 seconds after eating; for Thickness (middle to aftertaste): 4 to 15 seconds after eating. Here is the method:
Organoleptic evaluation was performed by 2 persons of special panelists for strength of “thickness” of each sample, to determine thickness-enhancing effects (thickness-boosting effect) of the ingredients to be evaluated. The organoleptic evaluation was performed by a four grade scoring method for initial taste, middle taste, and aftertaste (sensed in the periods of 0 to 4 second, 4 to 10 seconds, and 10 to 15 seconds after eating, respectively, which periods are defied for a solid) with scores of 0 to 3, wherein score 0 means no effect (i.e. strength of the thickness is the same as that of the control sample, score 1 means weakly effective, score 2 means effective, and score 3 means strongly effective.

Test [4] is described as follows: Organoleptic evaluation of salty taste-like thickness in potage soup with 2 ppm γ-Glu-Val-Gly (Example 2). Conditions: for Salty taste-like thickness (initial taste) / Salty taste-like thickness (middle to aftertaste): potage soup + 2 ppm γ-Glu-Val-Gly (control = score 0), score 0 to 3, L-tartaric acid 6 ppm, adipic acid 25 ppm, citric acid 2 ppm; for Salty taste-like thickness (initial taste): 0 to 1 second; for Salty taste-like thickness (middle to aftertaste): 1 to 5 seconds.

Test [5] in a line: Organoleptic evaluation of coffee-like thickness in milk coffee with 0.6 ppm γ-Glu-Abu-Gly (Example 3). Conditions: for thickness-enhancing effect for initial taste: milk coffee + 0.6 ppm γ-Glu-Abu-Gly, summary of Table 3; for Coffee-like thickness (initial taste) / Coffee-like thickness (middle to aftertaste): milk coffee + γ-Glu-Abu-Gly 0.6 ppm (control = score 0), score 0 to 3, L-tartaric acid 6 ppm, adipic acid 25 ppm, citric acid 3.5 ppm; for Coffee-like thickness (initial taste): 0 to 1 second; for Coffee-like thickness (middle to aftertaste): 1 to 5 seconds. Here is the method: as §1, §2, §3

Test [6] in a line: Organoleptic evaluation of thickness in carbonated lemon drink with 15 ppm γ-Glu-Val-Gly (Example 2). Conditions: for Thickness (initial taste) / Thickness (middle to aftertaste): carbonated lemon drink + 15 ppm γ-Glu-Val-Gly (control = score 0), score 0 to 3, L-tartaric acid 24 ppm, adipic acid 50 ppm, citric acid 3.5 ppm; for Thickness (initial taste): 0 to 1 second; for Thickness (middle to aftertaste): 1 to 5 seconds.

Setting [7] is: potage soup + 2 ppm γ-Glu-Val-Gly, Table 2.
[8] abbreviates: carbonated lemon drink + 15 ppm γ-Glu-Val-Gly, Table 2.

SMILES strings stand for the structures.

Turning to `O=C(O)CCCCC(=O)O` [Adipic acid], in test [1], the “Coffee-like thickness (initial taste)” value is reported as 1.0, the “Coffee-like thickness (middle to aftertaste)” value worked out at 0 and the “Thickness-enhancing effect for the initial taste” value is “observed”. For the same compound, in test [2], the “thickness-enhancing effect for initial taste” value is “observed”, the “Coffee-like thickness (initial taste)” value came to 1.0 and the “Coffee-like thickness (middle to aftertaste)” value is 0.5. For the same compound, in test [3], the “Thickness-enhancing effect for the initial taste” value is recorded as “observed”, the “Thickness (initial taste)” value is on record as 1.2 and the “Thickness (middle to aftertaste)” value turned out to be 1.0. For the same compound, in test [4], the “Salty taste-like thickness (initial taste)” value is 1.3 and the “Salty taste-like thickness (middle to aftertaste)” value turned out to be 0. In test [4] (setting [7]), the “thickness-enhancing effect for initial taste” value is listed as “observed”. Besides, in test [5], the “thickness-enhancing effect for initial taste” value is “observed”, the “Coffee-like thickness (initial taste)” value is reported as 1.0 and the “Coffee-like thickness (middle to aftertaste)” value was determined as 1.0. In test [6], the “Thickness (initial taste)” value was determined as 1.5 and the “Thickness (middle to aftertaste)” value is 0. Further, the “thickness-enhancing effect for initial taste” value in test [6] (setting [8]) is listed as “observed”.
For the compound `O=P([O-])([O-])O.[K+].[K+]` [Dipotassium hydrogenphosphate], in test [1], the “Coffee-like thickness (initial taste)” value stood at 0 and the “Coffee-like thickness (middle to aftertaste)” value turned out to be 1.0.
The corresponding values for `O=C([O-])/C=C/C(=O)[O-].[Na+].[Na+]` [Sodium fumarate] are 0 and 0.
The corresponding values for `O=C([O-])CC(O)(CC(=O)[O-])C(=O)[O-].[Na+].[Na+].[Na+]` [Trisodium citrate] are 0 and 0.
With `O=C(O)CC(O)(CC(=O)O)C(=O)O` [Citric acid, reference compound], the “Coffee-like thickness (initial taste)” value in test [1], in test [2] and in test [5] was 0 throughout. The “Coffee-like thickness (middle to aftertaste)” value in test [1], in test [2] and in test [5] was 0 in each case. The “Thickness (initial taste)” value in test [3] and in test [6] was 0 throughout. Further, the “Thickness (middle to aftertaste)” value in test [3] and in test [6] was 0 throughout. In test [4], the “Salty taste-like thickness (initial taste)” value is 0. Moreover, the “Salty taste-like thickness (middle to aftertaste)” value in test [4] stood at 0. Further, the thickness-enhancing effect result in test [4] (setting [7]) and in test [6] (setting [8]) was “not observed” each time.
In the case of `O=C(O)CCC(=O)O` [Succinic acid], in test [1], the “Coffee-like thickness (initial taste)” value stood at 0 and the “Coffee-like thickness (middle to aftertaste)” value turned out to be 2.5.
The corresponding values for `[Ca+2].[Cl-].[Cl-]` [Calcium chloride] are 0 and 0.
The corresponding values for `O=P([O-])(O)O.[K+]` [Potassium dihydrogenphosphate] are 0 and 0.5.
As for `O=C(O)[C@@H]1CCCN1` [Proline], in test [1], the “Coffee-like thickness (initial taste)” value is given as 0 and the “Coffee-like thickness (middle to aftertaste)” value amounted to 1.5.
Consider `O=C([O-])[C@H](O)[C@@H](O)C(=O)[O-].[Na+].[Na+]` [Sodium L-tartrate], for which, in test [3], the “Thickness (initial taste)” value is reported as 0.7 and the “Thickness (middle to aftertaste)” value stood at 0.5.
Consider `O=C(O)[C@H](O)[C@@H](O)C(=O)O` [L-Tartaric acid], for which the “Coffee-like thickness (initial taste)” value in test [1], in test [2] and in test [5] was 1.5 throughout. Moreover, the “Coffee-like thickness (middle to aftertaste)” value in test [1], in test [2] and in test [5] was 0 throughout. Moreover, the “Thickness-enhancing effect for the initial taste” value in test [1] and in test [3] was “observed” each time. Besides, the “thickness-enhancing effect for initial taste” value in test [2], in test [4] (setting [7]), in test [5] and in test [6] (setting [8]) was “observed” in each case. The “Thickness (initial taste)” value in test [3] worked out at 1.5; in test [6], 1.0. The figures for the “Thickness (middle to aftertaste)” value in test [3] and in test [6] were 1.0 and 0, respectively. Besides, the “Salty taste-like thickness (initial taste)” value in test [4] was found to be 1.3. Moreover, the “Salty taste-like thickness (middle to aftertaste)” value in test [4] came out at 0.
As for `[Cl-].[Cl-].[Mg+2]` [Magnesium chloride], in test [1], the “Coffee-like thickness (initial taste)” value came to 0 and the “Coffee-like thickness (middle to aftertaste)” value is recorded as 0.
On to `O=C(O)CC(O)C(=O)O` (racemic) [DL-Malic acid], for which, in test [1], the “Coffee-like thickness (initial taste)” value turned out to be 0 and the “Coffee-like thickness (middle to aftertaste)” value was found to be 0.
